{"source": "patent US20220096487A1", "about": "(priority 2019, published 2022)", "key": {"[1]": {"system": "INSTI-resistant site-directed mutant HIV-1 viruses", "experiment": "Susceptibility against INSTI-resistant site-directed mutant viruses", "assay_type": "cell-based"}, "CYP2B6 [2]": {"system": "CYP2B6", "experiment": "In vitro induction of CYP2B6", "assay_type": "in vitro ADME"}, "[3]": {"experiment": "Bacterial reverse mutation assay"}, "[4]": {"experiment": "Dolutegravir rat pre/post-natal development study", "assay_type": "in vivo", "conditions": "relative to human exposure at the RHD", "excerpt": "In the rat pre/post-natal development study, decreased body weight of the developing offspring was observed during lactation at a maternally toxic dose (approximately 32 times human exposure at the RHD)."}, "[5]": {"experiment": "In vivo rodent micronucleus assay"}, "CYP1A2 [6]": {"system": "CYP1A2", "experiment": "In vitro induction of CYP1A2", "assay_type": "in vitro ADME"}, "[7]": {"biological_target": "organic anion transporter (OAT)1 (Homo sapiens, UniProt Q4U2R8)", "sequence (Q4U2R8 whole entry)": "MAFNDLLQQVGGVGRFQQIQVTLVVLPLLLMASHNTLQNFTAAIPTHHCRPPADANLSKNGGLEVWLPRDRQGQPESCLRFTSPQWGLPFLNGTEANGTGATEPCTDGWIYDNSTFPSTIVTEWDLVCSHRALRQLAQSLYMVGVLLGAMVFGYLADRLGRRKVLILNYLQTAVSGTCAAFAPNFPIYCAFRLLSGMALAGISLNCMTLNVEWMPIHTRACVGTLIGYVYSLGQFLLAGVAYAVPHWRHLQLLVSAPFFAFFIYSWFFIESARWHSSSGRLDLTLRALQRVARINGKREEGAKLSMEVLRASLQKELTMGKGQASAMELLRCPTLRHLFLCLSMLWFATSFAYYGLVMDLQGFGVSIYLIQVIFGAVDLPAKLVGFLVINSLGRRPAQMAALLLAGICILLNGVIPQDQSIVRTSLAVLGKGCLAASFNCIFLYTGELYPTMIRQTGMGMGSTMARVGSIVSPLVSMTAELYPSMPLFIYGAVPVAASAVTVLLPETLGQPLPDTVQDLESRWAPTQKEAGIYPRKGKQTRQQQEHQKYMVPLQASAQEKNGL", "experiment": "In vitro inhibition of OAT1", "assay_type": "in vitro ADME"}, "CYP2C9": {"biological_target": "CYP2C9 (Homo sapiens, UniProt P11712)", "experiment": "In vitro inhibition of CYP2C9", "assay_type": "in vitro ADME", "conditions": "did not inhibit"}, "UGT2B7": {"biological_target": "UGT2B7 (Homo sapiens, UniProt P16662)", "sequence (P16662 24-529)": "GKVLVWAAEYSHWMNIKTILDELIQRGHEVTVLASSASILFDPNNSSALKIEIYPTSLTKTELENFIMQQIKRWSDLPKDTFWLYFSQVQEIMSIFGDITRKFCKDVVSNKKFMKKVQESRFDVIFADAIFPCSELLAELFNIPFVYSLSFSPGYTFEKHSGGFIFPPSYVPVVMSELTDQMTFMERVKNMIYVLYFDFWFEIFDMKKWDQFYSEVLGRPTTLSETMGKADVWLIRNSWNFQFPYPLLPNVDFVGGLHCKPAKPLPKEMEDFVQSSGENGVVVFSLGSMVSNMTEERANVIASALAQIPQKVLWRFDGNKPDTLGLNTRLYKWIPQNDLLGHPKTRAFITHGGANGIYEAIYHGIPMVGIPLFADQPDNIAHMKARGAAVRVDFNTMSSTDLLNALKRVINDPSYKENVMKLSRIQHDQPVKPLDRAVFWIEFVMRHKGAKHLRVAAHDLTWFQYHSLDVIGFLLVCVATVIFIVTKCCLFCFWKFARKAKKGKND", "experiment": "In vitro inhibition of UGT2B7", "assay_type": "in vitro ADME", "conditions": "did not inhibit"}, "[8]": {"experiment": "Thorough QT trial in healthy subjects", "assay_type": "in vivo, human"}, "CYP2B6 [9]": {"biological_target": "CYP2B6 (Homo sapiens, UniProt P20813)", "sequence (P20813 whole entry)": "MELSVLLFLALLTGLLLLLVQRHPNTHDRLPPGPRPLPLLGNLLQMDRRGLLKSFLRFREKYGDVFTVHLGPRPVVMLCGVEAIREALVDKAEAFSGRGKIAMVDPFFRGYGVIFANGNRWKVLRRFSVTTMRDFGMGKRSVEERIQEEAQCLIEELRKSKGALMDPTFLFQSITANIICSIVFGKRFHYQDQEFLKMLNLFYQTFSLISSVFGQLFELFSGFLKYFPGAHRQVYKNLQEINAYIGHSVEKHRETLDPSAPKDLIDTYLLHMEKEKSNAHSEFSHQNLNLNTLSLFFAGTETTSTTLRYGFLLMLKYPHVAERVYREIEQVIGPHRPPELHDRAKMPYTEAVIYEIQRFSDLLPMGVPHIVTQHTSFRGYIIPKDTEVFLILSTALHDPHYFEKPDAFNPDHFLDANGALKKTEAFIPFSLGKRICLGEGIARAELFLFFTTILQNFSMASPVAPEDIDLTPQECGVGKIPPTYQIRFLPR", "experiment": "In vitro inhibition of CYP2B6", "assay_type": "in vitro ADME", "conditions": "did not inhibit"}, "CYP1A2 [10]": {"biological_target": "CYP1A2 (Homo sapiens, UniProt P05177)", "experiment": "In vitro inhibition of CYP1A2", "assay_type": "in vitro ADME", "conditions": "did not inhibit"}, "MRP4": {"biological_target": "MRP4 (Homo sapiens, UniProt O15439)", "sequence (O15439 whole entry)": "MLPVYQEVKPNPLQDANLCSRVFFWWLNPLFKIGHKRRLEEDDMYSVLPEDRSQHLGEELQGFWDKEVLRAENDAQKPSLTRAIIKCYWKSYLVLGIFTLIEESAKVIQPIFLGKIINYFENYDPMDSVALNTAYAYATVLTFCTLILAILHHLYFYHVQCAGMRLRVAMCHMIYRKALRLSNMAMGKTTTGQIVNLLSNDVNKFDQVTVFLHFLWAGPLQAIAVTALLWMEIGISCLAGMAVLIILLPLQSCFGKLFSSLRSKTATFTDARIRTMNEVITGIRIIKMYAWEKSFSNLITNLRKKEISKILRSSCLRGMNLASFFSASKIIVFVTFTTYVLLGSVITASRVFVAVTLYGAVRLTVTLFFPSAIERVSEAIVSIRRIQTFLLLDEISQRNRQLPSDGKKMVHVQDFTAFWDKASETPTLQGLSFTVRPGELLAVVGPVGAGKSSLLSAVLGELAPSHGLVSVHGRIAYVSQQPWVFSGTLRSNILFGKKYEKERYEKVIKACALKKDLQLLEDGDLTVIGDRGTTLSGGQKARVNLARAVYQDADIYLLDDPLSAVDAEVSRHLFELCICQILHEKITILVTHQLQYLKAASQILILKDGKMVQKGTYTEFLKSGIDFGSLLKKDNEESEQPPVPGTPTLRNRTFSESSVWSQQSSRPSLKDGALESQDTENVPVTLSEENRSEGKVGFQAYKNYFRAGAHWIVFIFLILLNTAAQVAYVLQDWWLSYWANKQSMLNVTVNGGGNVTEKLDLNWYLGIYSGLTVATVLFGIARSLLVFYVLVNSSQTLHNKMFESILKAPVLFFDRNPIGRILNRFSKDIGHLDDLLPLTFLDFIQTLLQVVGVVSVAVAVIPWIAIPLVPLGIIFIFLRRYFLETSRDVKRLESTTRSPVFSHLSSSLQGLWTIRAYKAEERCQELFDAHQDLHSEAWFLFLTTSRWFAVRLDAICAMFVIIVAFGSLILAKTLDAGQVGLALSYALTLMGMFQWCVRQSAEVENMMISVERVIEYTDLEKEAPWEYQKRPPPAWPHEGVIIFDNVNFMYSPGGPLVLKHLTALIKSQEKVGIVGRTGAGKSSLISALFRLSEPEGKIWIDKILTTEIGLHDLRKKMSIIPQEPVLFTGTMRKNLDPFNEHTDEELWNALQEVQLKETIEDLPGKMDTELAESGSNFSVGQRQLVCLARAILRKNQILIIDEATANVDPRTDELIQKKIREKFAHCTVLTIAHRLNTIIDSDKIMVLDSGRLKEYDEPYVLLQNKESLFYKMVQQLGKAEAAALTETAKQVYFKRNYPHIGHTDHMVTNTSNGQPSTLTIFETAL", "experiment": "In vitro inhibition of MRP4", "assay_type": "in vitro ADME", "conditions": "did not inhibit"}, "OATP1B3": {"biological_target": "OATP1B3 (Homo sapiens, UniProt Q9NPD5)", "experiment": "In vitro inhibition of OATP1B3", "assay_type": "in vitro ADME", "conditions": "did not inhibit"}, "BCRP": {"biological_target": "T1, BCRP (Homo sapiens, UniProt Q9UNQ0)", "T1 sequence (Q9UNQ0 1-655)": "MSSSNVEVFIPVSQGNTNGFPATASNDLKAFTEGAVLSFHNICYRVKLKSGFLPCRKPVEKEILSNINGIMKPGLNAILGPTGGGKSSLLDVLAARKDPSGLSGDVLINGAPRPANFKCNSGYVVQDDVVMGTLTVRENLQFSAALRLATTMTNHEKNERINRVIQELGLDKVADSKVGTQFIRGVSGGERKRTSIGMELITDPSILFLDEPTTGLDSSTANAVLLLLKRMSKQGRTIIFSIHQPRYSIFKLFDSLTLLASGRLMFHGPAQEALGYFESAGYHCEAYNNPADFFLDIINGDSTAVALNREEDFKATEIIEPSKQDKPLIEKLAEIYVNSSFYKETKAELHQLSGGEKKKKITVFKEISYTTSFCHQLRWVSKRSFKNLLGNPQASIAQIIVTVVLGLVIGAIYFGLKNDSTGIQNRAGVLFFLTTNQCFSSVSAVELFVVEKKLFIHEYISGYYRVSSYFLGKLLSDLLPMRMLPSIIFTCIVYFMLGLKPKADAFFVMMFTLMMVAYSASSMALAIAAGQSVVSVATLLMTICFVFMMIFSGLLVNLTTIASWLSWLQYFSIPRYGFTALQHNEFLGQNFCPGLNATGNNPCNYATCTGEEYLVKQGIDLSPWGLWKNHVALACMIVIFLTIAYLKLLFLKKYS", "experiment": "In vitro substrate assessment, BCRP", "assay_type": "in vitro ADME"}, "HIV": {"system": "HIV", "experiment": "Antiviral activity in combination with other antiviral agents", "assay_type": "cell-based"}, "[11]": {"experiment": "Population pharmacokinetic analyses", "assay_type": "in vivo, human"}, "[12]": {"conditions": "cited from earlier work"}, "[13]": {"system": "HIV-1 with integrase substitutions", "experiment": "Selection of dolutegravir-resistant viruses in cell culture", "assay_type": "cell-based"}, "MATE1": {"biological_target": "MATE1 (Homo sapiens, UniProt Q96FL8)", "sequence (Q96FL8 whole entry)": "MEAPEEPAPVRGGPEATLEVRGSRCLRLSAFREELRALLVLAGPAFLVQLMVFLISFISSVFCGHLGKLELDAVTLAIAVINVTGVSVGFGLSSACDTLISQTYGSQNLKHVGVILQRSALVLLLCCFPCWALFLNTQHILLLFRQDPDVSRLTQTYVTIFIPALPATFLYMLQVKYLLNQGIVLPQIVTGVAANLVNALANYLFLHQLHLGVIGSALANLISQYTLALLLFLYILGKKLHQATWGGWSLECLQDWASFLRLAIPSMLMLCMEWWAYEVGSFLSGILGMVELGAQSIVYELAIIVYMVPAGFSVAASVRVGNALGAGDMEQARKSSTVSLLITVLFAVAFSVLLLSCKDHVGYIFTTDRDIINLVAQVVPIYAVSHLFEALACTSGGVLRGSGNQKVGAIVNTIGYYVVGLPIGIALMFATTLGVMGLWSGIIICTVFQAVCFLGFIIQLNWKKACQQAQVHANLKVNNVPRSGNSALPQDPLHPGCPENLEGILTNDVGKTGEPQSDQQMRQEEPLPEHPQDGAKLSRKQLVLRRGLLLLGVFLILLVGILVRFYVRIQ", "experiment": "In vitro inhibition of MATE1", "assay_type": "in vitro ADME"}, "[14]": {"experiment": "Carcinogenicity studies in rats", "conditions": "two-year study, doses up to 50 mg/kg, highest dose tested"}, "UGT1A9": {"biological_target": "UGT1A9 (Homo sapiens, UniProt O60656)", "sequence (O60656 26-530)": "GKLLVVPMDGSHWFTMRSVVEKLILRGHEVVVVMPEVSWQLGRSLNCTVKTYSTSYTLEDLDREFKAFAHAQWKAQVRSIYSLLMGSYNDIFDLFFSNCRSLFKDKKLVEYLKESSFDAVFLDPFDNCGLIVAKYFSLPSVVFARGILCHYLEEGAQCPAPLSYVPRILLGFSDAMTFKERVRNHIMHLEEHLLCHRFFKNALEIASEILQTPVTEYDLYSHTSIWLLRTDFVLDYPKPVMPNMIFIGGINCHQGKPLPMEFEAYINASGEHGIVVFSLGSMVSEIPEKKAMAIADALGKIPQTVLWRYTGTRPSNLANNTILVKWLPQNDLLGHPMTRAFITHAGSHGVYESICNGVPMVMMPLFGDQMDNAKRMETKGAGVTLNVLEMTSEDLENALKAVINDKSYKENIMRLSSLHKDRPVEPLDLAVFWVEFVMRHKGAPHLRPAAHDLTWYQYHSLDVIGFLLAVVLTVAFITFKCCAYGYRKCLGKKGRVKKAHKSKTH", "experiment": "In vitro substrate assessment, UGT1A9", "assay_type": "in vitro ADME"}, "[15]": {"system": "laboratory strains of wild-type HIV-1", "experiment": "Antiviral activity against laboratory strains in PBMCs and MT-4 cells", "assay_type": "cell-based", "conditions": "Human immunodeficiency virus 1, MT4"}, "[16]": {"experiment": "Excretion into milk of lactating rats", "assay_type": "in vivo", "conditions": "female, rat, milk / maternal plasma; single oral dose of 50 mg/kg on lactation Day 10; 8 hours postdose; read-out: Milk concentration relative to maternal plasma concentration"}, "[17]": {"system": "13 clinically diverse clade B isolates", "experiment": "Viral integrase susceptibility assay using integrase coding region from clinical isolates", "assay_type": "cell-based, HIV-1", "conditions": "Human immunodeficiency virus 1; 13 clade B isolates"}, "OATP1B1": {"biological_target": "OATP1B1 (Homo sapiens, UniProt Q9Y6L6)", "sequence (Q9Y6L6 whole entry)": "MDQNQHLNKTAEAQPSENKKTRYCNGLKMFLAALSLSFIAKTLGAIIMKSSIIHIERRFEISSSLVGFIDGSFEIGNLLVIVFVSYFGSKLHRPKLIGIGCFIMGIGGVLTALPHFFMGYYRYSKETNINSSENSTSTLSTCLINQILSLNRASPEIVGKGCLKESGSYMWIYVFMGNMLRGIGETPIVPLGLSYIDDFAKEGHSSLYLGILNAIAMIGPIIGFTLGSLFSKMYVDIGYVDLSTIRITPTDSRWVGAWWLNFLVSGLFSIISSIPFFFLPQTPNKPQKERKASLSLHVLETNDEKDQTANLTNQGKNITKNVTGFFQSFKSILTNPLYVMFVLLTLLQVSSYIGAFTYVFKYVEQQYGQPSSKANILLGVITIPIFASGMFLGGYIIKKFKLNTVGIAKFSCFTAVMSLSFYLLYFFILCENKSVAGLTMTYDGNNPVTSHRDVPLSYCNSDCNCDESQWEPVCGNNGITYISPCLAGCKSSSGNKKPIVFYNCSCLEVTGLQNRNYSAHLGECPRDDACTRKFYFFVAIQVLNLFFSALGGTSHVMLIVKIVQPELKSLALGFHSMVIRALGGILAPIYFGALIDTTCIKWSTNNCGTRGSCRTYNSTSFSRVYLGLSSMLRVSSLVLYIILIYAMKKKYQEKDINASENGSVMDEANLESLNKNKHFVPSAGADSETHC", "experiment": "In vitro substrate assessment, OATP1B1", "assay_type": "in vitro ADME"}, "L5178Y mouse lymphoma": {"system": "L5178Y mouse lymphoma", "experiment": "Mouse lymphoma assay"}, "[18]": {"experiment": "Carcinogenicity studies in mice", "conditions": "two-year study, doses up to 500 mg/kg, highest dose tested"}, "[19]": {"biological_target": "organic anion transporter polypeptide (OATP)1B1 (Homo sapiens, UniProt Q9Y6L6)", "sequence (Q9Y6L6 whole entry)": "as above", "experiment": "In vitro inhibition of OATP1B1", "assay_type": "in vitro ADME", "conditions": "did not inhibit"}}, "note": "Where “and” joins values, the source holds several entries; their conditions need not be identical. Equal values may be shown once."}
{"smiles": "C[C@@H]1CCO[C@H]2Cn3cc(C(=O)NCc4ccc(F)cc4F)c(=O)c(O)c3C(=O)N12", "note": "[Dolutegravir, dolutegravir]", "values": [{"measurement": "Decrease in dolutegravir susceptibility from reference", "setting": "[1]; multiple substitutions T66K/L74M, E92Q/N155H, G140C/Q148R, G140S/Q148H, R or K, Q148R/N155H, T97A/G140S/Q148, E138/G140/Q148", "result": "> 2", "unit": "fold"}, {"measurement": "Decrease in dolutegravir susceptibility from reference", "setting": "[1]; single INSTI-resistance substitutions T66K, I151L, and S153Y", "result": "> 2", "unit": "fold"}, {"measurement": "Induction of CYP2B6", "setting": "CYP2B6 [2]", "result": "did not induce"}, {"measurement": "Genotoxicity, bacterial reverse mutation assay", "setting": "[3]", "result": "not genotoxic"}, {"measurement": "Exposure multiple of maternally toxic dose with decreased body weight of developing offspring during lactation", "setting": "[4]", "result": "approximately 32 times"}, {"measurement": "Genotoxicity, in vivo rodent micronucleus assay", "setting": "[5]", "result": "not genotoxic"}, {"measurement": "Induction of CYP1A2", "setting": "CYP1A2 [6]", "result": "did not induce"}, {"measurement": "IC50", "setting": "[7]", "result": 2.12, "unit": "µM"}, {"measurement": "IC50", "setting": "CYP2C9", "result": "> 50", "unit": "µM"}, {"measurement": "IC50", "setting": "UGT2B7", "result": "> 50", "unit": "µM"}, {"measurement": "Maximum mean QTc change (QTcF)", "setting": "[8]; dolutegravir 250-mg suspension single dose, baseline and placebo adjusted", "result": 2.4, "unit": "ms"}, {"measurement": "QTc interval prolongation", "setting": "[8]; over 24 hours postdose", "result": "did not prolong"}, {"measurement": "IC50", "setting": "CYP2B6 [9]", "result": "> 50", "unit": "µM"}, {"measurement": "IC50", "setting": "CYP1A2 [10]", "result": "> 50", "unit": "µM"}, {"measurement": "IC50", "setting": "MRP4", "result": "> 50", "unit": "µM"}, {"measurement": "IC50", "setting": "OATP1B3", "result": "> 50", "unit": "µM"}, {"measurement": "Substrate of BCRP", "setting": "BCRP", "result": "substrate"}, {"measurement": "Antagonism with tested anti-HIV agents", "setting": "HIV", "result": "Neither dolutegravir nor lamivudine were antagonistic"}, {"measurement": "Effect of age on pharmacokinetics", "setting": "[11]; in vivo", "result": "no clinically relevant effect"}, {"measurement": "Effect of gender and race on pharmacokinetics", "setting": "[11]; studies with the individual components", "result": "no clinically relevant effect"}, {"measurement": "Neural tube defects, % of births", "setting": "[12]; mothers exposed to dolutegravir-containing regimens at the time of conception, 4 of 426 births", "result": 0.94, "unit": "%"}, {"measurement": "Neural tube defect in infants", "setting": "[12]; women who started dolutegravir during pregnancy (n=2,812)", "result": "No infant"}, {"measurement": "Decreased susceptibility to dolutegravir", "setting": "[13]; G118R", "result": 10, "unit": "fold"}, {"measurement": "Decreased susceptibility to dolutegravir", "setting": "[13]; substitutions E92Q, S153F or Y, G193E or R263K", "result": "up to 4 fold"}, {"measurement": "IC50", "setting": "MATE1", "result": 6.34, "unit": "µM"}, {"measurement": "AUC exposure multiple of human (50 mg once daily) with no increases in drug-related neoplasms", "setting": "[14]", "result": 17, "unit": "times"}, {"measurement": "Substrate of UGT1A9", "setting": "UGT1A9", "result": "substrate"}, {"measurement": "EC50", "setting": "[15]", "result": "0.5 nM to 2.1 nM and 0.00021 µg/mL to 0.00085 µg/mL"}, {"measurement": "Kp at 8 h", "setting": "[16]", "result": "≤ 1.3"}, {"measurement": "EC50", "setting": "[17]", "result": 0.00052, "unit": "µM"}, {"measurement": "Substrate of OATP1B1", "setting": "OATP1B1", "result": "not a substrate"}, {"measurement": "Genotoxicity/mutagenicity, mouse lymphoma assay", "setting": "L5178Y mouse lymphoma", "result": "not genotoxic"}, {"measurement": "AUC exposure multiple of human (50 mg once daily) with no significant increases in drug-related neoplasms", "setting": "[18]", "result": "approximately 20 fold"}, {"measurement": "IC50", "setting": "[19]", "result": "> 50", "unit": "µM"}]}
